A short description of data set [1]: In vitro drug release (dialysis membrane tubing, PBS). It counts as physicochemical. The settings on record: FIG. 5. As to the method: (iii) In vitro Drug Release: The rate of TA release from the NPs was measured by adapting a previously reported method. 40 Dialysis membrane tubing, MWCO 10 000 Da. (Spectrum Laboratories, Rancho Dominguez, Calif.) was soaked in deionized H2O overnight. 1 ml of the NP suspension was added to the dialysis membrane tubing after being briefly sonicated and was placed into 100 ml of PBS covered and stirring at 100 rpm at 37° C. 1 mL samples were removed at predetermined intervals over 10 days and replaced with fresh PBS. Samples were analyzed using UV spectroscopy at a wavelength of 240 nm (lmax) and compared to standard dilutions of TA in PBS (r^2=0.989) to determine the percentage of drug released over 10 days.
500 μL of 1 mg/mL DIG sol and 500 μL of DIG NPs in (cellulose) dialysis membrane tubing
Samples were taken in 750 μL increments and the respective amount of PBS was re-added

In a further data set the test system is ARPE-19 cells. Put plainly: Cytotoxicity, MTT assay. It counts as cell-based, human. The settings on record: FIG. 6. As to the method: (iv) Cytotoxicity: The cytotoxicity of the TA Nanoparticles was assessed in ARPE-19 cells (cells of a human retinal pigment epithelial cell line) by the 3-(4,5-dimethylthiazol-2-yl)-2,5-diphenyltetrazolium bromide salt (MTT) assay. Briefly, cells were seeded in 24-well plates at a density of 5×10^4 cells/ml for 24 h to achieve confluency before treatment. […] Cell culture media were aspirated, and […] of MTT reagent solution (1 mg/ml) was added to each well. Cells were incubated at 37° C. and 5% CO2 for 4 h, after which the MTT reagent solution was aspirated and 1 mL of DMSO was added to each well. Plates were allowed to shake gently for 10 min before being read by Synergy H4 plate reader (Biotek Industries, Inc., Winooski, Vt.) at absorbance of 570 nm.
Media was removed and cells were washed with 500 μL of HBSS prior to treatment.
Cell Treatments • 3 control wells with 500 μL Experimental Media only • 3 wells with DIG sol at 0.5 μM and 1 μM concentrations: (0.5 μM: 9.76 μL DIG sol+490.24 μL Exp. Media) • (1 μM: 19.52 μL DIG sol+480.48 μL Exp. Media) • 3 wells with DIG NPs at 0.5 μM and 1 μM concentrations: (0.5 μM: 1.012 μL DIG NPs+[…] Exp. Media) • (1 μM: 2.024 μL DIG NPs+497.97 μL Exp. Media)
MTT Cell treatments: same as above w/o CoCl2 step
Prepare MTT reagent: 0.5 mg/mL (in basal media) and cover with aluminum foil
Remove media from each well and wash with HBSS […]

Here are results for one compound from US11730703B2, “Nanoparticles for treatment of posterior segment ocular diseases and conditions” (UNIVERSITY OF SOUTH FLORIDA, priority 2017, dated 2023).

`C[C@H]1O[C@@H](O[C@H]2[C@@H](O)C[C@H](O[C@H]3[C@@H](O)C[C@H](O[C@H]4CC[C@@]5(C)[C@H](CC[C@@H]6[C@@H]5C[C@@H](O)[C@]5(C)[C@@H](C7=CC(=O)OC7)CC[C@]65O)C4)O[C@@H]3C)O[C@@H]2C)C[C@H](O)[C@@H]1O` [digoxin]: the “Drug release (in words)” value in data set [1] is given as “sustained therapeutic release”. Moreover, in the data set on ARPE-19 cells, the “Cell toxicity (in words)” value is listed as “relatively low cell toxicity”.
